In ChEMBL document CHEMBL4649989, “Design of a Chemical Probe for the Bromodomain and Plant Homeodomain Finger-Containing (BRPF) Family of Proteins” (J Med Chem, 2017):
“And” between values parts separate entries of the source, which are not always exact repeats. Identical values can stand only once.

What was measured:
Peregrin (Homo sapiens) [1] = target: Peregrin (Homo sapiens) (UniProt P55201); conditions: Compound concentration 10.0 uM
[2] = target: Bromodomain-containing protein 1 (Homo sapiens) (UniProt O95696); conditions: Compound concentration 10.0 uM
[3] = target: Tyrosine-protein kinase BAZ1B (Homo sapiens) (UniProt Q9UIG0); conditions: Compound concentration 10.0 uM
[4] = target: Nuclear body protein SP140 (Homo sapiens) (UniProt Q13342); conditions: Compound concentration 10.0 uM
[5] = target: Bromodomain-containing protein 4 (Homo sapiens) (UniProt O60885); conditions: Compound concentration 10.0 uM
[6] = target: Histone acetyltransferase KAT2B (Homo sapiens) (UniProt Q92831); conditions: Compound concentration 10.0 uM
[7] = target: Bromodomain-containing protein 9 (Homo sapiens) (UniProt Q9H8M2); conditions: Compound concentration 10.0 uM
Description: Thermal Shift Assay. Domain start/stop: L14-S134

[8] = target: Bromodomain-containing protein 9 (Homo sapiens) (UniProt Q9H8M2); conditions: Compound concentration 10.0 uM; remark: listed apart in the source
[9] = target: Bromodomain-containing protein 7 (Homo sapiens) (UniProt Q9NPI1); conditions: Compound concentration 10.0 uM
[10] = target: Bromodomain-containing protein 2 (Homo sapiens) (UniProt P25440); conditions: Compound concentration 10.0 uM
[11] = target: Bromodomain testis-specific protein (Homo sapiens) (UniProt Q58F21); conditions: Compound concentration 10.0 uM
[12] = target: Protein polybromo-1 (Homo sapiens) (UniProt Q86U86); conditions: Compound concentration 10.0 uM
[13] = target: Bromodomain testis-specific protein (Homo sapiens) (UniProt Q58F21); conditions: Compound concentration 10.0 uM; remark: listed apart in the source
[14] = target: Transcription intermediary factor 1-alpha (Homo sapiens) (UniProt O15164); conditions: Compound concentration 10.0 uM
[15] = target: CREB-binding protein (Homo sapiens) (UniProt Q92793); conditions: Compound concentration 10.0 uM
[16] = target: Transcription intermediary factor 1-alpha (Homo sapiens) (UniProt O15164); conditions: Compound concentration 10.0 uM; remark: listed apart in the source
[17] = target: CREB-binding protein (Homo sapiens) (UniProt Q92793); conditions: Compound concentration 5.0 uM
Description: Alphascreen assay. Domain start/stop: R1081-G1197

[18] = target: ATPase family AAA domain-containing protein 2 (Homo sapiens) (UniProt Q6PL18); conditions: Compound concentration 10.0 uM
[19] = target: Transcription initiation factor TFIID subunit 1 (Homo sapiens) (UniProt P21675); conditions: Compound concentration 10.0 uM
[20] = target: ATPase family AAA domain-containing protein 2B (Homo sapiens) (UniProt Q9ULI0); conditions: Compound concentration 10.0 uM
[21] = target: Chromatin remodeling regulator CECR2 (Homo sapiens) (UniProt Q9BXF3); conditions: Compound concentration 10.0 uM
[22] = target: Protein polybromo-1 (Homo sapiens) (UniProt Q86U86); conditions: Compound concentration 10.0 uM; remark: listed apart in the source
[23] = target: Bromodomain adjacent to zinc finger domain protein 1A (Homo sapiens) (UniProt Q9NRL2); conditions: Compound concentration 10.0 uM
[24] = target: Transcription initiation factor TFIID subunit 1 (Homo sapiens) (UniProt P21675); conditions: Compound concentration 10.0 uM; remark: listed apart in the source
Peregrin (Homo sapiens) [25] = target: Peregrin (Homo sapiens) (UniProt P55201); conditions: Compound concentration 10.0 uM; remark: listed apart in the source
[26] = target: Nucleosome-remodeling factor subunit BPTF (Homo sapiens) (UniProt Q12830); conditions: Compound concentration 25.0 uM, Protein concentration 19.0 uM
Description: Alphascreen assay. Domain start/stop: S2791-H2911

[27] = target: Protein polybromo-1 (Homo sapiens) (UniProt Q86U86); conditions: Compound concentration 10.0 uM; remark: listed apart in the source
[28] = target: Bromodomain-containing protein 3 (Homo sapiens) (UniProt Q15059); conditions: Compound concentration 10.0 uM
[29] = target: Histone acetyltransferase p300 (Homo sapiens) (UniProt Q09472); conditions: Compound concentration 10.0 uM
Peregrin = Peregrin (Homo sapiens, UniProt P55201); assay: Alphascreen assay. Binding to BRPF1B (domain start/stop: M626-G740) by alphascreen assay
[30] = target: Bromodomain and PHD finger-containing protein 3 (Homo sapiens) (UniProt Q9ULD4); conditions: Compound concentration 10.0 uM
[31] = target: SWI/SNF-related matrix-associated actin-dependent regulator of chromatin subfamily A member 4 (Homo sapiens) (UniProt P51532); conditions: Compound concentration 10.0 uM
[32] = target: Transcription initiation factor TFIID subunit 1-like (Homo sapiens) (UniProt Q8IZX4); conditions: Compound concentration 10.0 uM
[33] = target: Nuclear body protein SP140-like protein (Homo sapiens) (UniProt Q9H930); conditions: Compound concentration 10.0 uM
[34] = target: ATPase family AAA domain-containing protein 2 (Homo sapiens) (UniProt Q6PL18); conditions: Compound concentration 25.0 uM, Protein concentration 225.0 uM
Description: Alphascreen assay. Domain start/stop: Q981-R1108

[35] = target: Protein polybromo-1 (Homo sapiens) (UniProt Q86U86); conditions: Compound concentration 10.0 uM; remark: listed apart in the source
[36] = target: Bromodomain and WD repeat-containing protein 1 (Homo sapiens) (UniProt Q9NSI6); conditions: Compound concentration 10.0 uM
[37] = target: Bromodomain-containing protein 1 (Homo sapiens) (UniProt O95696); conditions: Compound concentration 25.0 uM, Protein concentration 50.0 uM
Description: Alphascreen assay. Domain start/stop: E556-A688

[38] = target: Protein polybromo-1 (Homo sapiens) (UniProt Q86U86); conditions: Compound concentration 10.0 uM; remark: listed apart in the source
[39] = target: Transcription initiation factor TFIID subunit 1-like (Homo sapiens) (UniProt Q8IZX4); conditions: Compound concentration 10.0 uM; remark: listed apart in the source
[40] = target: SWI/SNF-related matrix-associated actin-dependent regulator of chromatin subfamily A member 2 (Homo sapiens) (UniProt P51531); conditions: Compound concentration 10.0 uM
[41] = target: PH-interacting protein (Homo sapiens) (UniProt Q8WWQ0); conditions: Compound concentration 50.0 uM, Protein concentration 0.025 uM
[42] = target: Bromodomain-containing protein 2 (Homo sapiens) (UniProt P25440); conditions: Compound concentration 10.0 uM; remark: listed apart in the source
[43] = target: Nucleosome-remodeling factor subunit BPTF (Homo sapiens) (UniProt Q12830); conditions: Compound concentration 10.0 uM
[44] = target: Histone-lysine N-methyltransferase ASH1L (Homo sapiens) (UniProt Q9NR48); conditions: Compound concentration 10.0 uM
[45] = target: Bromodomain-containing protein 1 (Homo sapiens, UniProt O95696)
[46] = target: Chromatin remodeling regulator CECR2 (Homo sapiens) (UniProt Q9BXF3); conditions: Compound concentration 10.0 uM; remark: listed apart in the source
[47] = target: Transcription intermediary factor 1-beta (Homo sapiens) (UniProt Q13263); conditions: Compound concentration 10.0 uM
[48] = target: Protein polybromo-1 (Homo sapiens) (UniProt Q86U86); conditions: Compound concentration 10.0 uM; remark: listed apart in the source
[49] = target: Bromodomain adjacent to zinc finger domain protein 2A (Homo sapiens) (UniProt Q9UIF9); conditions: Compound concentration 10.0 uM
[50] = target: Histone-lysine N-methyltransferase 2A (Homo sapiens) (UniProt Q03164); conditions: Compound concentration 10.0 uM
[51] = target: Bromodomain adjacent to zinc finger domain protein 2B (Homo sapiens) (UniProt Q9UIF8); conditions: Compound concentration 10.0 uM
[52] = target: Chromatin remodeling regulator CECR2 (Homo sapiens) (UniProt Q9BXF3); conditions: Compound concentration 25.0 uM, Protein concentration 19.0 uM
[53] = target: Histone acetyltransferase KAT2A (Homo sapiens) (UniProt Q92830); conditions: Compound concentration 10.0 uM
[54] = target: Bromodomain-containing protein 3 (Homo sapiens) (UniProt Q15059); conditions: Compound concentration 10.0 uM; remark: listed apart in the source
[55] = target: PH-interacting protein (Homo sapiens) (UniProt Q8WWQ0); conditions: Compound concentration 10.0 uM
[56] = target: E3 ubiquitin-protein ligase TRIM33 (Homo sapiens) (UniProt Q9UPN9); conditions: Compound concentration 25.0 uM
[57] = target: Bromodomain-containing protein 4 (Homo sapiens) (UniProt O60885); conditions: Compound concentration 10.0 uM; remark: listed apart in the source
[58] = target: Bromodomain and WD repeat-containing protein 3 (Homo sapiens) (UniProt Q6RI45); conditions: Compound concentration 10.0 uM

Chain of Protein polybromo-1 (Homo sapiens) (Q86U86 whole entry, the tested form may be a part): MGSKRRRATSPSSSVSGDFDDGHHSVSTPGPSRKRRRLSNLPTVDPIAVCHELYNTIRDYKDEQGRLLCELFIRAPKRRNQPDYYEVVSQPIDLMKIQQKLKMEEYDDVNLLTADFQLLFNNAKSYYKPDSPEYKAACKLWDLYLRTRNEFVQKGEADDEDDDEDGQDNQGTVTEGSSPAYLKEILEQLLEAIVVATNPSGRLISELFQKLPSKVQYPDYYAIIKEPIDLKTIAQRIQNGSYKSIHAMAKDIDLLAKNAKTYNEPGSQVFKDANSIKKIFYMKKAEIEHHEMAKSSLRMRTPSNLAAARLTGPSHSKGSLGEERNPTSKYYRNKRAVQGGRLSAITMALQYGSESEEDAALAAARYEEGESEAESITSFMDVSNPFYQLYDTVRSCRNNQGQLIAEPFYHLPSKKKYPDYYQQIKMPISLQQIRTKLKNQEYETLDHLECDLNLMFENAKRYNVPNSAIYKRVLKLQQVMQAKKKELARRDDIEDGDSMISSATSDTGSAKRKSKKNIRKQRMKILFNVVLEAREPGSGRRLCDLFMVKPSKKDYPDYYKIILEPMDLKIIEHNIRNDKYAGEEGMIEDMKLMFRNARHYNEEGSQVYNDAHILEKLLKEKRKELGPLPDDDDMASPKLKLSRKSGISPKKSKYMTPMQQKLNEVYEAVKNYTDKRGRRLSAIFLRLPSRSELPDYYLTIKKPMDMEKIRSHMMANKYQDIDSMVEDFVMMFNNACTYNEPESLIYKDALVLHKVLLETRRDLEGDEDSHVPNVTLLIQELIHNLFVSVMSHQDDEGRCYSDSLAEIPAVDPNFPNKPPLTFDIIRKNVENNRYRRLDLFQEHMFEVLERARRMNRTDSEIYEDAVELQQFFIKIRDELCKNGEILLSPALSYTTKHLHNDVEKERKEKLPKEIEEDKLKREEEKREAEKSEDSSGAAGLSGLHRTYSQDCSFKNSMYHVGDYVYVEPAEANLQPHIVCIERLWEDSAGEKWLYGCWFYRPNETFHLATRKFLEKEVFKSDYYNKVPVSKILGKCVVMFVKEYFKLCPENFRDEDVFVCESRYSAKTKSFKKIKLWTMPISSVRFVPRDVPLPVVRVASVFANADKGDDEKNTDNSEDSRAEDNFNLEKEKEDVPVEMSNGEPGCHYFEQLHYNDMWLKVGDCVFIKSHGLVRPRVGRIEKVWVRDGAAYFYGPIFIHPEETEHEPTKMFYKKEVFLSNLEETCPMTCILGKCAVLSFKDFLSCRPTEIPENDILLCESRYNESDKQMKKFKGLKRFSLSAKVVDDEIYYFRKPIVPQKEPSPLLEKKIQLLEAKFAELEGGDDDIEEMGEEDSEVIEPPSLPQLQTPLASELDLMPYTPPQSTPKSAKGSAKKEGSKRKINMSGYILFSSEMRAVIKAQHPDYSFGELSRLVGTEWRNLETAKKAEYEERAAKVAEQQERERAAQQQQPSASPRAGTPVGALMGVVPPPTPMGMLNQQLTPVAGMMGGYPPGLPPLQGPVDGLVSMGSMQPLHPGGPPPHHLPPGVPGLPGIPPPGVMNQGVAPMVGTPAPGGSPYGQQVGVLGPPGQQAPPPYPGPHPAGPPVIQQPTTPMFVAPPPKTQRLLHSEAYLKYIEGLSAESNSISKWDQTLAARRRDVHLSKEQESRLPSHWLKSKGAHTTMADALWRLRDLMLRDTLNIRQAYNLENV
Chain of CREB-binding protein (Homo sapiens) (Q92793 2-2442 limits assumed): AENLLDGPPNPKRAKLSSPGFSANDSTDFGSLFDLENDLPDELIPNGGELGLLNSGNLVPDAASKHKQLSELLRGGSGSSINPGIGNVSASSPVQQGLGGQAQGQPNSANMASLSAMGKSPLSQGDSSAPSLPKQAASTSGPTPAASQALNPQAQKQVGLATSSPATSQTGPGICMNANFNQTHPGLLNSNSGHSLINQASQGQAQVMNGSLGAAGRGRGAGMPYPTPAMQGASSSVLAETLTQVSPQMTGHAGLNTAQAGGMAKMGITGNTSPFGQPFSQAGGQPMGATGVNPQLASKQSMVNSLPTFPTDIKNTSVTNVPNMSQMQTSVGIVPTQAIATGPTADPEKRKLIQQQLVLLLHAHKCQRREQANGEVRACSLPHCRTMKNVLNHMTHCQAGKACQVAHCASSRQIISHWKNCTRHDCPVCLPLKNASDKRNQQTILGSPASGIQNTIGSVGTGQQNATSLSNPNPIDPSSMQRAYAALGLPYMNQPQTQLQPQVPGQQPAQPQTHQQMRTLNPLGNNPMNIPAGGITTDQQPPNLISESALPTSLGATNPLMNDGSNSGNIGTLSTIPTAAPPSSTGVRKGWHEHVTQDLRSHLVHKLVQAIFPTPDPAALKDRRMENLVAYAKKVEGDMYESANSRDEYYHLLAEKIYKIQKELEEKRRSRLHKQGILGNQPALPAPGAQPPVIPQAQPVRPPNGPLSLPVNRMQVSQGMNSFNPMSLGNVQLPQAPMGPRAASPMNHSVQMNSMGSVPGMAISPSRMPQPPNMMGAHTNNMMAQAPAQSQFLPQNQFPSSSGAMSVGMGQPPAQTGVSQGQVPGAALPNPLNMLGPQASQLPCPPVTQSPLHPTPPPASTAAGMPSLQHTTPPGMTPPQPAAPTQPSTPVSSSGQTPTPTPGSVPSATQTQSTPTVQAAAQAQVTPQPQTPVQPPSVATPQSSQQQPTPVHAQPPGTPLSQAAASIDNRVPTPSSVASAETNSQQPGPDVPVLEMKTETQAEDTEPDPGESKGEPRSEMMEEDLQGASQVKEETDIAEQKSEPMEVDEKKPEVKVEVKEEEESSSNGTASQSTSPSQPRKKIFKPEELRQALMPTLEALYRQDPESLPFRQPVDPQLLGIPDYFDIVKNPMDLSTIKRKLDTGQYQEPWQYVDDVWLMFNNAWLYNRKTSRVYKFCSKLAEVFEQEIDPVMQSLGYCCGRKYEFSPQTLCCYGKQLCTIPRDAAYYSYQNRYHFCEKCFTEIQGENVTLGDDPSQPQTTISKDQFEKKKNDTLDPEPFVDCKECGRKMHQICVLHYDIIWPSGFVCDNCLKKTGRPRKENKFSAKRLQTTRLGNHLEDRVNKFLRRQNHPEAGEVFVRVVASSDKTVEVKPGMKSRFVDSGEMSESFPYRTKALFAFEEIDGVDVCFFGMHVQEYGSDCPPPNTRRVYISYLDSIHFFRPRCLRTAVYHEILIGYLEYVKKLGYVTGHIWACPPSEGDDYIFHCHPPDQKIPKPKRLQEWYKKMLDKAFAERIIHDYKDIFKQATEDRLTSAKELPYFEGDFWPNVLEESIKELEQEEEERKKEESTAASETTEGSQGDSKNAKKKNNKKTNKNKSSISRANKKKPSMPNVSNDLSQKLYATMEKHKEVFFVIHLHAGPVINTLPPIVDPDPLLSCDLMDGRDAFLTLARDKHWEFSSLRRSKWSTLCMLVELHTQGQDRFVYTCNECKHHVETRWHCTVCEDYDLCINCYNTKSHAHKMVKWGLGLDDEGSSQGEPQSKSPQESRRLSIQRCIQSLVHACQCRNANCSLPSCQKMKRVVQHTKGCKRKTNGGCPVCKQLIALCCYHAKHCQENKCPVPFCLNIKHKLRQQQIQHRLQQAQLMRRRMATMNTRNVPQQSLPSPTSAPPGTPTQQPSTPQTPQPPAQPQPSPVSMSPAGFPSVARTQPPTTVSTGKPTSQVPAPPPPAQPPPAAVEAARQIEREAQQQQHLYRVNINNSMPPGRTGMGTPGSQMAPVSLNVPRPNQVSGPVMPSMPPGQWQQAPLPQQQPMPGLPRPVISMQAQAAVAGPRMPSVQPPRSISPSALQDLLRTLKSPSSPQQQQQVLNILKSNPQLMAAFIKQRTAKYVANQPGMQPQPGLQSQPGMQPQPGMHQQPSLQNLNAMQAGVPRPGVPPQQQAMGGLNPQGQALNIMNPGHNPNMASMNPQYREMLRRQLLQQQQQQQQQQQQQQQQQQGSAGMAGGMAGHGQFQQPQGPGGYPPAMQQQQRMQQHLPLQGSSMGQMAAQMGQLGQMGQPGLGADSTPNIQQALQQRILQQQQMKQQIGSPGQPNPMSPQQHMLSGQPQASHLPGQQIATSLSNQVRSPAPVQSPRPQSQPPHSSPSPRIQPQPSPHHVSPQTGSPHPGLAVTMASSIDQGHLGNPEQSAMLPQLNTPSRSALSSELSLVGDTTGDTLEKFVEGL
Chain of Transcription intermediary factor 1-alpha (Homo sapiens) (O15164 whole entry): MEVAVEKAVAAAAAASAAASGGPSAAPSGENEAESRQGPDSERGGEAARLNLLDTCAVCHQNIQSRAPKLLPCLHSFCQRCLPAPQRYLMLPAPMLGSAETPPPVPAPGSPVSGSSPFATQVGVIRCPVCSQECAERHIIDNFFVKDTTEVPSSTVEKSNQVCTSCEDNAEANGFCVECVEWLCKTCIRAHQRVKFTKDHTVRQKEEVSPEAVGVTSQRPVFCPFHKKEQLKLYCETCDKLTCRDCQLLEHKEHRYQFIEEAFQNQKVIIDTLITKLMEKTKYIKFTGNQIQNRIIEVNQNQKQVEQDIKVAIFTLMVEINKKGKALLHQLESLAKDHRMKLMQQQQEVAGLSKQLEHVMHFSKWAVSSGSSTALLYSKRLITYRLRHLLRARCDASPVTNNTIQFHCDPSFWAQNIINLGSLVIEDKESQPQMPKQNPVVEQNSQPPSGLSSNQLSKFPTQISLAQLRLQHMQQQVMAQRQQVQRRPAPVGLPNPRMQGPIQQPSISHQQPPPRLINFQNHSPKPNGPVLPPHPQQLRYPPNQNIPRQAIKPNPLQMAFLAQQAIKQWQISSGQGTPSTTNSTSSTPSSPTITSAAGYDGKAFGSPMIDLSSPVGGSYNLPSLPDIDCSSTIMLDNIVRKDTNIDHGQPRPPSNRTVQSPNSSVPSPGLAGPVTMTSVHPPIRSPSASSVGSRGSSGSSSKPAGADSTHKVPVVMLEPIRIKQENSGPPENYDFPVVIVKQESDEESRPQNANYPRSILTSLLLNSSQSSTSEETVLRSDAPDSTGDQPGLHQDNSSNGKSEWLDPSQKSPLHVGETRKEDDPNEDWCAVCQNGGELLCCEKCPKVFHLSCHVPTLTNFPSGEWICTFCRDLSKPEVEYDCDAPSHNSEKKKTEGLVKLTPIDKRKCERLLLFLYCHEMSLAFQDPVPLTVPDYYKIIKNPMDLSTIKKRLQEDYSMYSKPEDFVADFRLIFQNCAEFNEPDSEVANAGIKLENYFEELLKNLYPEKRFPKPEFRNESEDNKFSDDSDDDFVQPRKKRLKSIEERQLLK

Question: What does the source list for `COc1cc(C#N)ccc1S(=O)(=O)Nc1ccc2c(c1)cc(C)c(=O)n2C`?
Answer: ΔTm (Peregrin (Homo sapiens) [1]): 1.19 °C; ΔTm [2]: 5.67 °C; ΔTm [3]: 0.4 °C; ΔTm [4]: 1.1 °C; ΔTm [5]: 0.14 °C; ΔTm [6]: 0.53 °C; ΔTm [7]: 5.4 °C; ΔTm [8]: 4.57 °C and 3.61 °C; ΔTm [9]: 6.81 °C; ΔTm [10]: 0.11 °C; ΔTm [11]: 0.25 °C; ΔTm [12]: 0.79 °C; ΔTm [13]: 0.32 °C; ΔTm [14]: 2.11 °C and 2.01 °C; ΔTm [15]: 0.49 °C and 1.24 °C; ΔTm [16]: 1.64 °C; inhibition [17]: 4.5%; ΔTm [18]: -0.43 °C; ΔTm [19]: 0.55 °C; ΔTm [20]: -0.01 °C; ΔTm [21]: 0.42 °C; ΔTm [22]: 0.79 °C; ΔTm [23]: 0.38 °C; ΔTm [24]: 0.4 °C; ΔTm (Peregrin (Homo sapiens) [25]): 12.3 °C and 10.8 °C; inhibition [26]: 49.2%; ΔTm [27]: 0.3 °C; ΔTm [28]: 0.17 °C; ΔTm [29]: 1.15 °C; IC50 (Peregrin): 47.2 nM; ΔTm [30]: 5.43 °C; ΔTm [31]: 0.38 °C; ΔTm [32]: 0.81 °C; ΔTm [33]: 1.35 °C; inhibition [34]: 4.03%; ΔTm [35]: 0.58 °C; ΔTm [36]: 0.74 °C; inhibition [37]: 99.7%; ΔTm [38]: 0.3 °C; ΔTm [39]: 0.72 °C; ΔTm [40]: 0.58 °C; inhibition [41]: 6.61% and 8.15%; ΔTm [42]: 0.62 °C; ΔTm [43]: 0.31 °C; ΔTm [44]: 0.15 °C; IC50 [45]: 315 nM; ΔTm [46]: 0.43 °C; ΔTm [47]: 1.21 °C; ΔTm [48]: 0.5 °C; ΔTm [49]: -0.24 °C; ΔTm [50]: 0.47 °C; ΔTm [51]: 0.1 °C; inhibition [52]: 35.4%; ΔTm [53]: 0.45 °C; ΔTm [54]: 0.83 °C; ΔTm [55]: -2.61 °C; inhibition [56]: 9.82%; ΔTm [57]: 0.93 °C and 1.25 °C; ΔTm [58]: 2.08 °C
